Experimental data from ChEMBL document CHEMBL1150780, “Duocarmycin-based prodrugs for cancer prodrug monotherapy” (Bioorg Med Chem, 2008).

Assays:
[1] = test system: A549; experiment: Ratio of IC50 for human A549 cells to IC50 for human A549 cells in presence of beta-D-glucuronidase; assay type: functional
[2] = test system: A549; experiment: Cytotoxicity against human A549 cells after 24 hrs visualized by Lofflers methylene blue by colony forming assay in presence of beta-D-glucuronidase; assay type: functional, cell-based
[3] = test system: A549; experiment: Cytotoxicity against human A549 cells after 24 hrs visualized by Lofflers methylene blue by colony forming assay; assay type: functional, cell-based

C[C@@H](Cl)[C@@H]1CN(C(=O)c2cc3cc(OCCN(C)C)ccc3[nH]2)c2cc(O[C@@H]3O[C@H](C(=O)O)[C@@H](O)[C@H](O)[C@H]3O)c3ccccc3c21
Ratio IC50 [1]: 700
IC50 [2]: 0.9 nM
IC50 [3]: 610 nM

COC(=O)[C@H]1O[C@@H](Oc2cc3c(c4ccccc24)[C@H]([C@@H](C)Cl)CN3C(=O)c2cc3cc(OCCN(C)C)ccc3[nH]2)[C@H](O)[C@@H](O)[C@@H]1O
Ratio IC50 [1]: 1600
IC50 [2]: 2.1 nM
IC50 [3]: 3300 nM
